From US20230339874A1, “PIPERAZINYL COMPOUNDS AND METHODS FOR TREATING NEMATODE INFECTIONS” (The Governing Council of the University of Toronto, priority 2020, published 2023) come the findings set out here.

Read-outs that look alike come from different tables or passages of the source.

The subject of one test is Strongyloides ratti L3. It counts as in vivo. The conditions noted are these: 72 h incubation, 1 replicate.
Test [1] relates to Pristionchus pacificus young adult animals. Nature of the test: Pristionchus pacificus young adult abnormal locomotory behaviour on solid agar. It counts as in vivo. The conditions noted are these: read-out: P. pacificus, young adult 1 h any phene at 1 h (EC50 (μM)).
In the next test the target is T1, rat VAChT (Rattus norvegicus, UniProt Q62666).
T1 sequence (Q62666 1-530): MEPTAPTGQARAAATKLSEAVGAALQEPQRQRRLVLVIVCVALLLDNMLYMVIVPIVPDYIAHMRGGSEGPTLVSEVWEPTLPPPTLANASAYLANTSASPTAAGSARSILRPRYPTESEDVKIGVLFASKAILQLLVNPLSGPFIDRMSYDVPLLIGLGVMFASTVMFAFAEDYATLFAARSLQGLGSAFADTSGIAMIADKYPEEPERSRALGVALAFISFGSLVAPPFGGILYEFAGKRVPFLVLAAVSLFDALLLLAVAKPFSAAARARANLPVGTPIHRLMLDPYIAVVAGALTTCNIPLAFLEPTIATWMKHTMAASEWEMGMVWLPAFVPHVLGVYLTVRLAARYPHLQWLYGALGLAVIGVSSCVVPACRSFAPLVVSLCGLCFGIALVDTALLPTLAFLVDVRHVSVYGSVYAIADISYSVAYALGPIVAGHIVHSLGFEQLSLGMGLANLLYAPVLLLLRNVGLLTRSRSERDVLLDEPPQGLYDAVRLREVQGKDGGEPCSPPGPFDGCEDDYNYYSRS
As to the kind of experiment: Competition binding, displacement of [3H]vesamicol from rat VAChT. (Displacement assays read how much labelled ligand stays bound in the presence of the test substance.)

In test [2] the test system is Heligmosomoides polygyrus larval stage 3 (L3) worms. It counts as in vivo. As to conditions: 72 h incubation, one replicate.
The test system of test [3] is Danio rerio (zebrafish) embryos. Nature of the test: Danio rerio (zebrafish) embryo abnormal developmental phenotype. It counts as in vivo.
The next test has as its system C. elegans L3 larvae. As to the kind of experiment: C. elegans L3 larvae abnormal locomotory behaviour on solid agar. As to conditions: solid agar MYOB + E. coli OP50, mean of 4 replicates; for % C. elegans L3 larvae any phene 1 h (conc.): 1 h exposure; for % C. elegans L3 larvae any phene 6 h (conc.): 6 h exposure; for % C. elegans L3 larvae any phene 24 h (conc.): 24 h exposure.

Another test relates to D. immitis microfilariae. Nature of the test: D. immitis microfilariae immobility assay. It counts as in vivo. The conditions noted are these: 72 h, read-out: D. immitis microfilariae immobility EC50 (μM).
The test system of test [4] is D. immitis larval stage 3 (L3) worms. As to the kind of experiment: D. immitis L3 development assay. As to conditions: 72 h, read-out: D. immitis L3 development EC50 (μM). It counts as in vivo.
Where [5] appears, read: displacement of [3H]vesamicol, rat VAChT expressed in P12 cells, read-out: ratVAChT Ki.
Setting [6] is: read-out: D. rerio (zebrafish) any phenotype EC50 (μM).

Description for C. elegans L3 larvae: 20 animals were scored after either 1, 6 or 24 hours of exposure to drug (as indicated) per replicate. […] Data are reported as the mean % of animals with abnormal phenotype over 4 independent replicates.

As a reminder, the EC50 is the midpoint of the concentration-response curve. A word on the Ki: it is a dissociation constant, usually derived from enzyme kinetics or from competition with a known ligand. For `FC(F)(F)c1cccc(N2CCN(CC3CCCC3)CC2)c1` [VI-k], the “S. ratti L3 % lethality 25 μM” value in the test on Strongyloides ratti L3 stood at 0%. Besides, the EC50 in test [1] (1 h) and in test [3] (setting [6]) was over 60 µM throughout. The inhibitory constant (Ki) on rat VAChT (setting [5]) worked out at 6.68 µM. Besides, the “H. Polygyrus % lethality L3 25 μM” value in test [2] is 34.1%. In addition, the “% C. elegans L3 larvae any phene 1 h (conc.)” value in the test with C. elegans L3 larvae (3.75 uM) was determined as 18.3%; in the test on C. elegans L3 larvae (15 uM) it was 94.2%; with C. elegans L3 larvae (60 uM) it was 95.0%. For the same compound, the figures for the “% C. elegans L3 larvae any phene 6 h (conc.)” value in the test on C. elegans L3 larvae (3.75 uM), with C. elegans L3 larvae (15 uM) and in the test with C. elegans L3 larvae (60 uM) were 0.8%, 30.8% and 70.0%, respectively. Moreover, the “% C. elegans L3 larvae any phene 24 h (conc.)” value in the test on C. elegans L3 larvae (3.75 uM) was 0.0%; with C. elegans L3 larvae (15 uM), 8.3%; in the test on C. elegans L3 larvae (60 uM), 80.8%.
Turning to `O[C@@H]1CCCC[C@H]1N1CCC(c2ccccc2)CC1` (racemic) [vesamicol, reference compound], the “S. ratti L3 % lethality 25 μM” value in the test with Strongyloides ratti L3 stood at 17.3%. Moreover, the half-maximal effective concentration (EC50) in test [1] (1 h) is over 60 µM; in test [3] (setting [6]), 21.1 µM. This compound also gave an inhibition constant (Ki) at rat VAChT of 0.0303 µM. In addition, the “H. Polygyrus % lethality L3 25 μM” value in test [2] is given as 0%. Also, the “% C. elegans L3 larvae any phene 1 h (conc.)” value with C. elegans L3 larvae (3.75 uM) is 0.0%; in the test with C. elegans L3 larvae (15 uM) it was 0.0%; in the test with C. elegans L3 larvae (60 uM), 11.7%. The “% C. elegans L3 larvae any phene 6 h (conc.)” value with C. elegans L3 larvae (3.75 uM) is given as 0.0%; in the test on C. elegans L3 larvae (15 uM) it was 0.8%; in the test with C. elegans L3 larvae (60 uM), 1.7%. For the same compound, the “% C. elegans L3 larvae any phene 24 h (conc.)” value in the test with C. elegans L3 larvae (3.75 uM), in the test on C. elegans L3 larvae (15 uM) and in the test on C. elegans L3 larvae (60 uM) was 0.0% throughout.
With `Cc1cc(N2CCN(CC3CCCCC3)CC2)ccc1[N+](=O)[O-]` [V-b], the concentration giving a half-maximal response (EC50) was 5.1 µM in the test on D. immitis microfilariae, over 60 µM in test [1] (1 h), 5.1 µM in test [3] (setting [6]) and 14 µM in test [4]. In addition, the entries for the “% C. elegans L3 larvae any phene 1 h (conc.)” value in the test with C. elegans L3 larvae (3.75 uM), with C. elegans L3 larvae (15 uM) and with C. elegans L3 larvae (60 uM) were 2.5%, 20.8% and 62.5%, respectively. Moreover, the figures for the “% C. elegans L3 larvae any phene 6 h (conc.)” value in the test with C. elegans L3 larvae (3.75 uM), in the test with C. elegans L3 larvae (15 uM) and in the test on C. elegans L3 larvae (60 uM) were 0.0%, 3.3% and 41.7%, respectively. The “% C. elegans L3 larvae any phene 24 h (conc.)” value with C. elegans L3 larvae (3.75 uM) amounted to 0.0%; with C. elegans L3 larvae (15 uM), 0.0%; with C. elegans L3 larvae (60 uM) it was 9.2%.
With `Cc1ccc(N2CCN(CC3CC4C=CC3C4)CC2)cc1` (stereo not shown) [VI-c], the “S. ratti L3 % lethality 25 μM” value in the test on Strongyloides ratti L3 stood at 0%. Moreover, the inhibitory constant (Ki) at rat VAChT (setting [5]) was found to be 0.159 µM. For the same compound, the “H. Polygyrus % lethality L3 25 μM” value in test [2] was 7.6%. Moreover, the EC50 is 16.9 µM in test [3] (setting [6]) and over 50 µM in test [4]. Besides, the “% C. elegans L3 larvae any phene 1 h (conc.)” value with C. elegans L3 larvae (3.75 uM) came out at 33.8%; with C. elegans L3 larvae (15 uM), 100.0%; in the test with C. elegans L3 larvae (60 uM), 100.0%. For the same compound, the entries for the “% C. elegans L3 larvae any phene 6 h (conc.)” value with C. elegans L3 larvae (3.75 uM), in the test with C. elegans L3 larvae (15 uM) and with C. elegans L3 larvae (60 uM) were 7.5%, 64.2% and 84.2%, respectively. The “% C. elegans L3 larvae any phene 24 h (conc.)” value is on record as 0.0% in the test on C. elegans L3 larvae (3.75 uM), 10.0% in the test with C. elegans L3 larvae (15 uM) and 100.0% in the test on C. elegans L3 larvae (60 uM).
`FC(F)(F)c1cccc(N2CCN(C3CCCCCCC3)CC2)c1` [VI-i]: the “S. ratti L3 % lethality 25 μM” value in the test with Strongyloides ratti L3 turned out to be 0%. For the same compound, the results for the EC50 in test [1] (1 h), in test [3] (setting [6]) and in test [4] were 49.6 µM, 4 µM and over 50 µM, respectively. Also, the “H. Polygyrus % lethality L3 25 μM” value in test [2] is 11.2%. The “% C. elegans L3 larvae any phene 1 h (conc.)” value with C. elegans L3 larvae (3.75 uM) worked out at 26.7%; with C. elegans L3 larvae (15 uM), 70.0%; in the test with C. elegans L3 larvae (60 uM) it was 96.7%. Further, the results for the “% C. elegans L3 larvae any phene 6 h (conc.)” value in the test with C. elegans L3 larvae (3.75 uM), with C. elegans L3 larvae (15 uM) and in the test on C. elegans L3 larvae (60 uM) were 0.0%, 0.0% and 58.3%, respectively. In addition, the “% C. elegans L3 larvae any phene 24 h (conc.)” value with C. elegans L3 larvae (3.75 uM) was determined as 0.0%; in the test with C. elegans L3 larvae (15 uM), 0.0%; in the test on C. elegans L3 larvae (60 uM) it was 5.0%.
On to `Cc1ccc(N2CCN(C3CCC(C)C3)CC2)cc1` (stereo not shown) [VI-a], for which the “S. ratti L3 % lethality 25 μM” value with Strongyloides ratti L3 is listed as 28.1%. Moreover, the Ki at rat VAChT (setting [5]) is 0.411 µM. Also, the “H. Polygyrus % lethality L3 25 μM” value in test [2] is reported as 31.6%. Besides, the concentration giving a half-maximal response (EC50) was over 15 µM in test [3] (setting [6]) and over 50 µM in test [4]. Further, the results for the “% C. elegans L3 larvae any phene 1 h (conc.)” value with C. elegans L3 larvae (3.75 uM), with C. elegans L3 larvae (15 uM) and with C. elegans L3 larvae (60 uM) were 58.3%, 98.3% and 100.0%, respectively. For the same compound, the results for the “% C. elegans L3 larvae any phene 6 h (conc.)” value with C. elegans L3 larvae (3.75 uM), in the test on C. elegans L3 larvae (15 uM) and with C. elegans L3 larvae (60 uM) were 1.7%, 74.2% and 100.0%, respectively. In addition, the “% C. elegans L3 larvae any phene 24 h (conc.)” value in the test on C. elegans L3 larvae (3.75 uM) turned out to be 0.0%; in the test on C. elegans L3 larvae (15 uM), 20.0%; with C. elegans L3 larvae (60 uM), 100.0%.
As to `Cc1cc([N+](=O)[O-])ccc1N1CCN(CC2CCCCC2)CC1` [V-a], the concentration giving a half-maximal response (EC50) in test [1] (1 h) was over 60 µM; in test [3] (setting [6]), 5.1 µM; in test [4], 15 µM. The “% C. elegans L3 larvae any phene 1 h (conc.)” value with C. elegans L3 larvae (3.75 uM) stood at 15.8%; in the test with C. elegans L3 larvae (15 uM), 33.3%; in the test on C. elegans L3 larvae (60 uM), 63.3%. The figures for the “% C. elegans L3 larvae any phene 6 h (conc.)” value in the test with C. elegans L3 larvae (3.75 uM), in the test with C. elegans L3 larvae (15 uM) and with C. elegans L3 larvae (60 uM) were 0.0%, 15.8% and 27.5%, respectively. The “% C. elegans L3 larvae any phene 24 h (conc.)” value with C. elegans L3 larvae (3.75 uM), with C. elegans L3 larvae (15 uM) and in the test on C. elegans L3 larvae (60 uM) was 0.0% in each case.
On to `O=C(C1CCCCC1)N1CCN(c2ccc([N+](=O)[O-])cc2)CC1` [III-a], for which the EC50 is over 60 µM in test [1] (1 h exposure, tested at 3.75, 15 and 60 μM, NA = not active, no phenotype at 60 μM); over 15 µM in test [3] (1 day post fertilization embryos through 48 h of development, tested at 15 and 3.75 μM, select compounds at 60 and 30 μM, read-out: D. rerio (zebrafish) any phenotype EC50); over 50 µM in test [4]. Further, the “% C. elegans L3 larvae any phene 1 h (conc.)” value is reported as 0.8% with C. elegans L3 larvae (3.75 uM), 0.8% with C. elegans L3 larvae (15 uM) and 4.2% in the test with C. elegans L3 larvae (60 uM). The “% C. elegans L3 larvae any phene 6 h (conc.)” value was 0.8% in the test with C. elegans L3 larvae (3.75 uM), 5.8% in the test on C. elegans L3 larvae (15 uM) and 24.2% in the test on C. elegans L3 larvae (60 uM). Further, the “% C. elegans L3 larvae any phene 24 h (conc.)” value with C. elegans L3 larvae (3.75 uM), in the test with C. elegans L3 larvae (15 uM) and in the test with C. elegans L3 larvae (60 uM) was 0.0% throughout.
`Cc1ccc(N2CCN(CC3CC=CCC3)CC2)cc1` (stereo not shown) [VI-e]: in the test on Strongyloides ratti L3, the “S. ratti L3 % lethality 25 μM” value was determined as 31.6%. Moreover, the EC50 in test [1] (1 h) was 5.7 µM; in test [3] (setting [6]), 32.5 µM. Also, the Ki at rat VAChT (setting [5]) is 0.208 µM. Besides, the “H. Polygyrus % lethality L3 25 μM” value in test [2] turned out to be 0%. In addition, the “% C. elegans L3 larvae any phene 1 h (conc.)” value in the test with C. elegans L3 larvae (3.75 uM) worked out at 36.7%; in the test on C. elegans L3 larvae (15 uM), 96.7%; in the test with C. elegans L3 larvae (60 uM), 100.0%. The “% C. elegans L3 larvae any phene 6 h (conc.)” value was 5.8% in the test on C. elegans L3 larvae (3.75 uM), 46.7% in the test on C. elegans L3 larvae (15 uM) and 100.0% in the test with C. elegans L3 larvae (60 uM). Also, the “% C. elegans L3 larvae any phene 24 h (conc.)” value with C. elegans L3 larvae (3.75 uM) was 0.0%; in the test with C. elegans L3 larvae (15 uM) it was 5.0%; in the test with C. elegans L3 larvae (60 uM), 99.2%.
